Where a name gives a salt, the structure may show the parent alone.
Tested on: 22RV1 cells
Assay: Experiment 2 on inhibiting 22RV1 cell proliferation (7 days, CellTiter-Glo)
Format: cell-based
Details: Homo sapiens, 22Rv1, 168 h, 1% css-FBS phenol red-free medium, incubated with compound 7 days, read-out: IC50 values on proliferation inhibition of 22RV1 cells
Experimental: Prostate cancer cells 22RV1 were purchased from ATCC, the cell medium was RPMI 1640+10% FBS, and the cells were cultured in an incubator at 37° C. under 5% CO2. On day 1, the cells in an exponential phase were collected. With a 1% css-FBS phenol red-free medium, the cell suspension was adjusted to a corresponding concentration, plated at 2000 cells/well and incubated overnight. On day 2, compounds at different concentrations were added, and the plate was placed in the incubator and incubated for further 7 days. After the incubation was completed, according to operation instructions for a CellTiter-Glo kit (Promega, G7573), 50 μL of CTG solution, which was already pre-melted and equilibrated to room temperature, was added to each well, and the mixtures were uniformly mixed for 2 min using a microplate shaker. The plate was placed at room temperature for 10 min, and then fluorescence signal values were measured using a microplate reader (PHERAstar FSX). The results were processed according to formula (2), the survival rate of the compound at different concentrations was calculated, and the IC50 value of the compound with a survival rate of 50% was calculated using origin9.2 software with DoseResp function, wherein RLU compound was the readout of the treated group, and RLU control was the average value of the DMSO vehicle control group.

Structure (SMILES) | IC50
CC(C)(c1ccc(OCc2ccnc(N3CCN(C4CN(CC5CCN(c6ccc7c(c6)C(=O)N(C6CCC(=O)NC6=O)C7=O)CC5)C4)CC3)n2)cc1)c1cc(Cl)cc(C#N)c1 (stereo not shown) [Compound 56 trifluoroacetate, 3-chloro-5-(2-(4-((2-(4-(1-((1-(2-(2,6-dioxopiperidin-3-yl)-1,3-dioxoisoindolin-5-yl)piperidin-4-yl)methyl)azetidin-3-yl)piperazin-1-yl)pyrimidin-4-yl)methoxy)phenyl)propan-2-yl)benzonitrile] | 0.716 µM
CC(C)(c1ccc(OCc2ccnc(N3CCN(C4CN(CC5CN(c6ccc7c(c6)C(=O)N(C6CCC(=O)NC6=O)C7=O)C5)C4)CC3)n2)cc1)c1cc(Cl)cc(C#N)c1 (stereo not shown) [Compound 57 trifluoroacetate, 3-chloro-5-(2-(4-((2-(4-(1-((1-(2-(2,6-dioxopiperidin-3-yl)-1,3-dioxoisoindolin-5-yl)azetidin-3-yl)methyl)azetidin-3-yl)piperazin-1-yl)pyrimidin-4-yl)methoxy)phenyl)propan-2-yl)benzonitrile] | 0.687 µM
CC(C)(c1ccc(OCc2ccnc(N3CCN(C4CN(CC5CCN(c6ccc7c(c6)C(=O)N(C6CCC(=O)NC6=O)C7=O)C5)C4)CC3)n2)cc1)c1cc(Cl)cc(C#N)c1 (stereo not shown) [Compound 58 trifluoroacetate, 3-chloro-5-(2-(4-((2-(4-(1-((1-(2-(2,6-dioxopiperidin-3-yl)-1,3-dioxoisoindolin-5-yl)pyrrolidin-3-yl)methyl)azetidin-3-yl)piperazin-1-yl)pyrimidin-4-yl)methoxy)phenyl)propan-2-yl)benzonitrile] | 0.744 µM
CC(C)(c1ccc(OCc2ccnc(N3CCN(C4CC5(CCN(C6CC7(CCN(c8ccc9c(c8)C(=O)N(C8CCC(=O)NC8=O)C9=O)CC7)C6)CC5)C4)CC3)n2)cc1)c1cc(Cl)cc(C#N)c1 (stereo not shown) [Compound 59 trifluoroacetate, 3-chloro-5-(2-(4-((2-(4-(7-(2-(2,6-dioxopiperidin-3-yl)-1,3-dioxoisoindolin-5-yl)-7,7′-diaza[2,7′-bispiro[3.5]nonan]-2′-yl)piperazin-1-yl)pyrimidin-4-yl)methoxy)phenyl)propan-2-yl)benzonitrile] | 0.647 µM
CC(C)(c1ccc(OCc2ccnc(N3CCN(C4CC5(CCN(CC6CCN(c7ccc8c(c7)C(=O)N(C7CCC(=O)NC7=O)C8=O)CC6)CC5)C4)CC3)n2)cc1)c1cc(Cl)cc(C#N)c1 (stereo not shown) [Compound 60 trifluoroacetate, 3-chloro-5-(2-(4-((2-(4-(7-((1-(2-(2,6-dioxopiperidin-3-yl)-1,3-dioxoisoindolin-5-yl)piperidin-4-yl)methyl)-7-azaspiro[3.5]nonan-2-yl)piperazin-1-yl)pyrimidin-4-yl)methoxy)phenyl)propan-2-yl)benzonitrile] | 0.866 µM
CC(C)(c1ccc(OCc2ccnc(N3CCN(C4CCN(CC5CN(c6ccc7c(c6)C(=O)N(C6CCC(=O)NC6=O)C7=O)C5)C4)CC3)n2)cc1)c1cc(Cl)cc(C#N)c1 (stereo not shown) [Compound 61 trifluoroacetate, 3-chloro-5-(2-(4-((2-(4-(1-((1-(2-(2,6-dioxopiperidin-3-yl)-1,3-dioxoisoindolin-5-yl)azetidin-3-yl)methyl)pyrrolidin-3-yl)piperazin-1-yl)pyrimidin-4-yl)methoxy)phenyl)propan-2-yl)benzonitrile] | 0.632 µM
CC(C)(c1ccc(OCc2ccnc(N3CCN(C4CCN(CC5CCN(c6ccc7c(c6)C(=O)N(C6CCC(=O)NC6=O)C7=O)C5)C4)CC3)n2)cc1)c1cc(Cl)cc(C#N)c1 (stereo not shown) [Compound 62 trifluoroacetate, 3-chloro-5-(2-(4-((2-(4-(1-((1-(2-(2,6-dioxopiperidin-3-yl)-1,3-dioxoisoindolin-5-yl)pyrrolidin-3-yl)methyl)pyrrolidin-3-yl)piperazin-1-yl)pyrimidin-4-yl)methoxy)phenyl)propan-2-yl)benzonitrile] | 0.735 µM
CC(C)(c1ccc(OCc2ccnc(N3CCN(C4CCN(CC5CCN(c6ccc7c(c6)C(=O)N(C6CCC(=O)NC6=O)C7=O)CC5)C4)CC3)n2)cc1)c1cc(Cl)cc(C#N)c1 (stereo not shown) [Compound 63 trifluoroacetate, 3-chloro-5-(2-(4-((2-(4-(1-((1-(2-(2,6-dioxopiperidin-3-yl)-1,3-dioxoisoindolin-5-yl)piperidin-4-yl)methyl)pyrrolidin-3-yl)piperazin-1-yl)pyrimidin-4-yl)methoxy)phenyl)propan-2-yl)benzonitrile] | 0.593 µM

Now from value to molecule:

IC50 | Structure (SMILES)
0.637 µM | CC(C)(c1ccc(OCc2ccnc(N3CCC(N4CC(N5CCN(c6ccc7c(c6)C(=O)N(C6CCC(=O)NC6=O)C7=O)CC5)C4)CC3)n2)cc1)c1cc(Cl)cc(C#N)c1 (stereo not shown) [Compound 64 trifluoroacetate, 3-chloro-5-(2-(4-((2-(4-(3-(4-(2-(2,6-dioxopiperidin-3-yl)-1,3-dioxoisoindolin-5-yl)piperazin-1-yl)azetidin-1-yl)piperidin-1-yl)pyrimidin-4-yl)methoxy)phenyl)propan-2-yl)benzonitrile]
0.759 µM | CC(C)(c1ccc(OCc2ccnc(N3CCC(N4CC(CN5CCN(c6cccc7c6C(=O)N(C6CCC(=O)NC6=O)C7=O)CC5)C4)CC3)n2)cc1)c1cc(Cl)cc(C#N)c1 (stereo not shown) [Compound 65 trifluoroacetate, 3-chloro-5-(2-(4-((2-(4-(3-((4-(2-(2,6-dioxopiperidin-3-yl)-1,3-dioxoisoindolin-4-yl)piperazin-1-yl)methyl)azetidin-1-yl)piperidin-1-yl)pyrimidin-4-yl)methoxy)phenyl)propan-2-yl)benzonitrile]
0.584 µM | CC(C)(c1ccc(OCc2ccnc(N3CCN(CC4CCN(C5CC6(CCN(c7ccc8c(c7)C(=O)N(C7CCC(=O)NC7=O)C8=O)CC6)C5)C4)CC3)n2)cc1)c1cc(Cl)cc(C#N)c1 (stereo not shown) [Compound 66 trifluoroacetate, 3-chloro-5-(2-(4-((2-(4-((1-(7-(2-(2,6-dioxopiperidin-3-yl)-1,3-dioxoisoindolin-5-yl)-7-azaspiro[3.5]nonan-2-yl)pyrrolidin-3-yl)methyl)piperazin-1-yl)pyrimidin-4-yl)methoxy)phenyl)propan-2-yl)benzonitrile]
0.643 µM | CC(C)(c1ccc(OCc2ccnc(N3CCN(CC4CCN(C5CCCN(c6ccc7c(c6)C(=O)N(C6CCC(=O)NC6=O)C7=O)C5)C4)CC3)n2)cc1)c1cc(Cl)cc(C#N)c1 (stereo not shown) [Compound 67 trifluoroacetate, 3-chloro-5-(2-(4-((2-(4-((1-(1-(2-(2,6-dioxopiperidin-3-yl)-1,3-dioxoisoindolin-5-yl)piperidin-3-yl)pyrrolidin-3-yl)methyl)piperazin-1-yl)pyrimidin-4-yl)methoxy)phenyl)propan-2-yl)benzonitrile]
0.371 µM | CC(C)(c1ccc(OCc2ccnc(N3CC4(CCN(CC5CCN(c6ccc7c(c6)C(=O)N(C6CCC(=O)NC6=O)C7=O)CC5)CC4)C3)n2)cc1)c1cc(Cl)cc(C#N)c1 (stereo not shown) [Compound 69 trifluoroacetate, 3-chloro-5-(2-(4-((2-(7-((1-(2-(2,6-dioxopiperidin-3-yl)-1,3-dioxoisoindolin-5-yl)piperidin-4-yl)methyl)-2,7-diazaspiro[3.5]nonan-2-yl)pyrimidin-4-yl)methoxy)phenyl)propan-2-yl)benzonitrile]

Source: patent publication US20240383874A1, “BENZENE RING DERIVATIVE, AND COMPOSITION AND PHARMACEUTICAL USE THEREOF” (Xizang Haisco Pharmaceutical Co., Ltd., priority 2020, published 2024)
